Experimental data published in patent publication US11179372B2, “Isoxazoline solution containing vitamin E for use with sanitized drinking water” (Intervet Inc., priority 2015, dated 2021).

Legend:
[1] = test system: poultry red mite (D. gallinae); assay: Efficacy of Fluralaner in medicated drinking water against poultry red mite infestation of laying hens; format: in vivo, Dermanyssus gallinae; details: for % Inhibition of mites 24 hours after infestation on day 1 / % Inhibition of mites 24 hours after infestation on day 5 / % Inhibition of mites 24 hours after infestation on day 8 / % Inhibition of mites 24 hours after infestation on day 12 / % Inhibition of mites 24 hours after infestation on day 15 / % Inhibition of mites 24 hours after infestation on day 19 / % Inhibition of mites 24 hours after infestation on day 22 / % Mortality of mites 24 hours after infestation on day 1 / % Mortality of mites 24 hours after infestation on day 5 / % Mortality of mites 24 hours after infestation on day 8 / % Mortality of mites 24 hours after infestation on day 12 / % Mortality of mites 24 hours after infestation on day 15 / % Mortality of mites 24 hours after infestation on day 19 / % Mortality of mites 24 hours after infestation on day 22: laying hens
Excerpt: The drinking water used was regular tap water not comprising a significant amount of oxidising sanitizer, and no vitamin E was used in the concentrated Fluralaner solution used. Experimental animals were chickens, particularly laying hens of about 30 weeks old. These were housed in a standard poultry house. Apparently healthy birds were assigned in a random way to treatment groups kept separately, and labelled individually. The birds were kept under natural light, and were given several days for acclimatization; drinking water consumption in each group was measured on three days prior to administration to calculate the average daily water consumption. Medicated water was prepared by diluting a concentrated Fluralaner solution (10 mg/ml) to the desired concentration of Fluralaner in regular tap water (hypochlorite <0.5 ppm). […] Groups A-D (n=6) were treated with doses of 2, 1 or 0.5 mg Fluralaner/kg BW once, or with 1 mg Fluralaner/kg BW in a repeated dose of 0.5 mg/kg BW on 2 occasions, 7 days apart. On day 0 (and group D additionally on day 7), the hens in groups A-D received Fluralaner via medicated drinking water. Group E received un-medicated drinking water ad libitum. The dose to be administered was calculated based on average body weights of each treatment group, measured one day before treatment (day −1, day 6). A concentrated Fluralaner solution was diluted in the drinking water to prepare medicated drinking water ready for consumption, via the following dosing regimen: • The volume of medicated water offered per group on day 0 (group D also on day 7) was approximately 50% of the calculated mean daily water intake measured previously in the respective group in order to ensure consumption of the full dose. • Once all medicated water was consumed the other 50% volume of the mean daily water intake was supplied as unmedicated tap water in the same drinker. On days 1, 5, 8, 12, 15, 19 and 22, four of the six hens per group were infested with approximately 200 vital, D. gallinae mites (unfed nymphs and adults that had starved before infestation for 7 days). From each infested hen approximately 25 engorged mites were collected after a few hours of presence in the animal box, next they were incubated for approximately 24 hours, after which their status was observed. The dead, damaged and/or live mites were counted visually using a binocular. Mites were classified as dead if no movement was determined or mites lay in a dorsal position. Mites were classified as damaged if their movement was uncoordinated. The Mite Mortality and Mite Inhibition percentage was calculated for each treated group in comparison to a non-treated negative control group.

[2] = test system: Northern fowl mite (O. sylviarum); assay: Efficacy of Fluralaner in medicated drinking water against Northern fowl mite infestation of laying hens; format: in vivo, Ornithonyssus sylviarum
Experimental: No vitamin E was present in the concentrated Fluralaner solution used to prepare the medicated drinking water. The effectivity of an oral dosing regimen of Fluralaner was tested by administering medicated drinking water (via gavage) to laying hens, in 2 repeated doses of 0.25, 0.5 or 1.0 mg/kg body weight, administered 7 days apart, and challenging them with infestation by Northern fowl mites, via source birds and natural infestation. The birds were kept in separate pens, at 11 birds per pen. The statistical analysis of results was based on mite count from each bird in the study, using pen as a random factor in the model, and mite counts were performed and recorded for individual birds. Mite vent count reduction of the treated groups compared to the control group was the primary efficacy criterion.

[3] = Group A, 2 mg/kg BW once, drinking water
[4] = Group B, 1 mg/kg BW once, drinking water
[5] = Group C, 0.5 mg/kg BW once, drinking water
[6] = Group D, 1 (2 × 0.5) mg/kg BW, days 0 and 7, drinking water

For `Cc1cc(C2=NOC(c3cc(Cl)cc(Cl)c3)(C(F)(F)F)C2)ccc1C(=O)NCC(=O)NCC(F)(F)F` (stereo not drawn) [Fluralaner], the “% Inhibition of mites 24 hours after infestation on day 1” value [1, 3] was 100%, the “% Inhibition of mites 24 hours after infestation on day 5” value (“% Inhibition … on day 5” below) [1, 3] was 100% and the “% Inhibition of mites 24 hours after infestation on day 8” value (“% Inhibition … on day 8” below) [1, 3] was 100%. For the same molecule, the “% Inhibition of mites 24 hours after infestation on day 12” value (“% Inhibition … on day 12” below) [1, 3] was 100%, the “% Inhibition of mites 24 hours after infestation on day 15” value (“% Inhibition … on day 15” for short) [1, 3] was 81% and the “% Inhibition of mites 24 hours after infestation on day 19” value (from here on “% Inhibition … on day 19”) [1, 3] was 14%. The “% Inhibition of mites 24 hours after infestation on day 22” value (from here on “% Inhibition … on day 22”) [1, 3] was 0%, the “% Mortality of mites 24 hours after infestation on day 1” value [1, 3] was 100% and the “% Mortality of mites 24 hours after infestation on day 5” value (from here on “% Mortality … on day 5”) [1, 3] was 100%. The “% Mortality of mites 24 hours after infestation on day 8” value (“% Mortality … on day 8” below) [1, 3] was 100%, the “% Mortality of mites 24 hours after infestation on day 12” value (shortened to “% Mortality … on day 12”) [1, 3] was 100% and the “% Mortality of mites 24 hours after infestation on day 15” value (from here on “% Mortality … on day 15”) [1, 3] was 77%. For the same molecule, the “% Mortality of mites 24 hours after infestation on day 19” value (“% Mortality … on day 19” for short) [1, 3] was 1%, the “% Mortality of mites 24 hours after infestation on day 22” value (“% Mortality … on day 22” for short) [1, 3] was 0% and the “% Inhibition of mites 24 hours after infestation on day 1” value [1, 4] was 100%. For the same molecule, the “% Inhibition … on day 5” value [1, 4] was 100%, the “% Inhibition … on day 8” value [1, 4] was 100% and the “% Inhibition … on day 12” value [1, 4] was 95%. For the same molecule, the “% Inhibition … on day 15” value [1, 4] was 81%, the “% Inhibition … on day 19” value [1, 4] was 3% and the “% Inhibition … on day 22” value [1, 4] was 0%. For the same molecule, the “% Mortality of mites 24 hours after infestation on day 1” value [1, 4] was 100%, the “% Mortality … on day 5” value [1, 4] was 100% and the “% Mortality … on day 8” value [1, 4] was 100%. The “% Mortality … on day 12” value [1, 4] was 94%, the “% Mortality … on day 15” value [1, 4] was 77% and the “% Mortality … on day 19” value [1, 4] was 2%. For the same molecule, the “% Mortality … on day 22” value [1, 4] was 0%, the “% Inhibition of mites 24 hours after infestation on day 1” value [1, 5] was 100% and the “% Inhibition … on day 5” value [1, 5] was 100%. The “% Inhibition … on day 8” value [1, 5] was 100%, the “% Inhibition … on day 12” value [1, 5] was 75% and the “% Inhibition … on day 15” value [1, 5] was 19%. For the same molecule, the “% Inhibition … on day 19” value [1, 5] was 0%, the “% Inhibition … on day 22” value [1, 5] was 0% and the “% Mortality of mites 24 hours after infestation on day 1” value [1, 5] was 100%. For the same molecule, the “% Mortality … on day 5” value [1, 5] was 100%, the “% Mortality … on day 8” value [1, 5] was 97% and the “% Mortality … on day 12” value [1, 5] was 55%. The “% Mortality … on day 15” value [1, 5] was 15%, the “% Mortality … on day 19” value [1, 5] was 0% and the “% Mortality … on day 22” value [1, 5] was 0%. For the same molecule, the “% Inhibition of mites 24 hours after infestation on day 1” value [1, 6] was 100%, the “% Inhibition … on day 5” value [1, 6] was 100% and the “% Inhibition … on day 8” value [1, 6] was 100%. The “% Inhibition … on day 12” value [1, 6] was 100%, the “% Inhibition … on day 15” value [1, 6] was 99% and the “% Inhibition … on day 19” value [1, 6] was 66%. The “% Inhibition … on day 22” value [1, 6] was 27%, the “% Mortality of mites 24 hours after infestation on day 1” value [1, 6] was 100% and the “% Mortality … on day 5” value [1, 6] was 100%. For the same molecule, the “% Mortality … on day 8” value [1, 6] was 100%, the “% Mortality … on day 12” value [1, 6] was 100% and the “% Mortality … on day 15” value [1, 6] was 98%. For the same molecule, the “% Mortality … on day 19” value [1, 6] was 59%, the “% Mortality … on day 22” value [1, 6] was 14% and the “Onset of action against red mites” value ([1]; all administered doses) was “fast onset of action”. The “Duration of efficacy after first treatment administration” value (“Duration of efficacy” for short) ([2]; 0.25 mg/kg BW dose group (2 doses, 7 days apart)) was “up to 19 days”, the “Duration of efficacy” value ([2]; 0.5 mg/kg BW dose group (2 doses, 7 days apart)) was no more than 22 days and the “Duration of efficacy” value ([2]; 1.0 mg/kg BW dose group (2 doses, 7 days apart)) was no more than 22 days. The “Efficacy against O. sylviarum” value ([2]; 2 single doses of 0.25, 0.5, or 1 mg/kg BW, 7 days apart, oral) was “significant efficacy”, the “Reductions in mite vent counts, onset” value ([2]; all treated groups, beginning at day 1) was “statistically significant reductions” and the “Efficacy against Northern fowl mites (reduction in mite vent count)” value ([2]; all treated groups, for at least 19 days, untreated source birds in same pen) was greater than 90%.
